In assay [1] the test system is IκB. As to the kind of experiment: IκB degradation in RANKL-treated RAW264.7 cells (anti-IκB immunoblot). The conditions noted are these: cytoplasmic extracts of RAW264.7 cells from FIG. 4A (FIG. 4B). It counts as cell-based, mouse. On the procedure: RAW264.7 cells were plated in 6-well plates and treated with the indicated peptides for 5 h, then treated with RANKL (10 nM) for 15 mm. Nuclear and cytoplasmic extracts were prepared and a gel mobility shift assays was performed with 8 μg of nuclear extracts as described below.
Cytoplasmic extracts (30 μg) from FIG. 4A were immunoblotted with anti-IκB as described below.
293 cells were plated at 0.6×10^6 cells/well on 6-well plates and transfected the next day as described (8). Total amount of plasmid DNA was kept constant by adding empty pCMVFLAG1 vector. Cells and the conditioned supernatants were harvested 24-36 h after transfection. Lysates were prepared as described (8). For western blot analysis, whole-cell lysates (15-30 μg) or proteins from GST-affinity precipitation were separated by 8.5% SDS-PAGE, electroblotted onto nitrocellulose membranes, and incubated with the indicated antibodies. The membranes were then developed using the enhanced chemiluminescence (ECL) system (Amersham, Chicago, Ill.).
(In general: In western blotting, separated proteins are transferred to a membrane and probed.)

The subject of assay [2] is bone marrow-derived mouse monocytes. Put plainly: RANKL and M-CSF-mediated osteoclast differentiation in bone marrow-derived mouse monocytes (TRAP staining). It counts as cell-based. On the procedure: After 6-7 days, the cells were fixed and stained for TRAP. The numbers of multi-nucleated, TRAP positive osteoclasts were counted.
Mouse-derived monocytes were plated in 48-well plates and costimulated as in FIG. 3A with murine M-CSF (10 ng/ml) and RANKL (30 ng/ml) in the absence (left panel) or presence of the indicated peptides. After 6-7 days, the cells were fixed and stained for TRAP. A representative field from each well was taken at a magnification of 10×.
Primary bone marrow monocytes (BM) or RAW264.7 cells were cultured in 48-well dishes at a density of 1×10^5 cells/well or 2×10^3 cells/well, and then treated with the indicated factors at the beginning of the culture and during a medium change on day 3. Osteoclast formation was assessed by counting the total number of multi-nucleated (>3 nuclei), TRAP-positive cells present per well between day 7 and 10 (BM) or on day 5 (RAW264.7) (30).
To further support the results obtained from the RAW264.7 cell line, the ability of these peptides to inhibit RANKL-mediated osteoclast differentiation in primary mouse-derived monocytes was tested. Costimulation of bone marrow-derived monocytes with RANKL and M-CSF cause osteoclast differentiation after 7-10 days, as determined by staining multi-nucleated, TRAP positive osteoclasts (30). Similar to the results with RAW264.7 cells, both L-T6DP-1 and L-T6DP-2 inhibited the development of TRAP positive osteoclast in a dose-dependent manner and L-T6DP-1 was much more efficient (FIGS. 3A and 3B).

For the substance “L-T6DP-1: Kaposi fibroblast growth factor signal sequence hydrophobic domain attached to murine RANK peptide containing the known TRAF6 binding domain (AAVALLPAVLLALLAPRKIPTEDEYTDRPSQPST; PEPTIDE Peptide L-T6Bp-1)”, the IκB degradation result in assay [1] is on record as “inhibition”. In addition, the “development of TRAP positive osteoclasts” value in assay [2] (M-CSF 10 ng/ml and RANKL 30 ng/ml (FIGS. 3A, 3B)) is given as “inhibited”. Moreover, the multi-nucleated osteoclasts result in assay [2] (M-CSF and RANKL, 30 μM peptide, cells still TRAP positive (FIG. 3B)) was “multi-nucleated osteoclast were not observed”. Further, the osteoclasts result in assay [2] (M-CSF and RANKL, 100 μM peptide (FIG. 3B)) is “no osteoclasts were observed”.

These data come from patent US6998383B2, “Inhibitors of receptor activator of NF-κB and uses thereof” (Research Development Corporation, priority 2001, dated 2006).
